Reference: patent US11480877B2, “Resist composition, method for forming resist pattern, and polyphenol compound used therein” (Mitsubishi Gas Chemical Company, Inc., priority 2015, dated 2022)

Test: Safe solvent solubility test of compound
Type: physicochemical
Details: for Solubility in CHN (amount of dissolution) / Solubility in PGME (amount of dissolution) / Solubility in PGME A (amount of dissolution): 23° C., ultrasonic waves 30 minutes, visual observation; for Solubility in PGME A (amount of dissolution) / Solubility in safe solvents (in words): PGMEA; for Solubility in safe solvents (in words): safe solvents PGME; for Solubility in CHN (amount of dissolution) / Solubility in safe solvents (in words): CHN
Protocol: The solubilities of the compound in PGME, PGMEA, and CHN were evaluated according to the following criteria utilizing the amount of dissolution in each solvent. The amount of dissolution was measured at 23° C. by precisely weighing the compound into a test tube, adding a subject solvent so as to attain a predetermined concentration, applying ultrasonic waves for 30 minutes in an ultrasonic cleaner, and visually observing the subsequent state of the fluid.
A: 5.0% by mass≤Amount of dissolution
B: 2.0% by mass≤Amount of dissolution<5.0% by mass
C: Amount of dissolution<2.0% by mass • (2) Storage Stability and Thin Film Formability of Resist Composition

In the case of `COc1cc(C2c3c(ccc4ccc(O)cc34)Oc3ccc4ccc(O)cc4c32)cc(I)c1O` [Synthesis Example 6], the “Solubility in CHN (amount of dissolution)” value (shortened to “Solubility in CHN”) is reported as “A (5.0% by mass ≤ Amount of dissolution)”, the “Solubility in PGME (amount of dissolution)” value is reported as “A (5.0% by mass ≤ Amount of dissolution)” and the “Solubility in PGME A (amount of dissolution)” value is reported as “A (5.0% by mass ≤ Amount of dissolution)”. For the same compound, the “Solubility in safe solvents (in words)” value was “high solubility”.
In the case of `Oc1ccc2ccc3c(c2c1)C(c1cccc(I)c1)c1c(ccc2ccc(O)cc12)O3` [Synthesis Example 4], the “Solubility in CHN” value is reported as “B (2.0% by mass ≤ Amount of dissolution <5.0% by mass)”, the “Solubility in PGME (amount of dissolution)” value is reported as “A (5.0% by mass ≤ Amount of dissolution)” and the “Solubility in PGME A (amount of dissolution)” value is reported as “A (5.0% by mass ≤ Amount of dissolution)”. For the same compound, the “Solubility in safe solvents (in words)” value was “high solubility”.
In the case of `Oc1ccc2ccc3c(c2c1)C(c1ccc(I)cc1)c1c(ccc2ccc(O)cc12)O3` [Synthesis Example 5], the “Solubility in CHN” value is reported as “A (5.0% by mass ≤ Amount of dissolution)”, the “Solubility in PGME (amount of dissolution)” value is reported as “A (5.0% by mass ≤ Amount of dissolution)” and the “Solubility in PGME A (amount of dissolution)” value is reported as “C (Amount of dissolution <2.0% by mass)”. The “Solubility in safe solvents (in words)” value was “high solubility”.
In the case of `Oc1ccc2c3c(ccc2c1)Oc1ccc2cc(O)ccc2c1C3c1cccc(I)c1` [Synthesis Example 1], the “Solubility in CHN” value is reported as “A (5.0% by mass ≤ Amount of dissolution)”, the “Solubility in PGME (amount of dissolution)” value is reported as “A (5.0% by mass ≤ Amount of dissolution)” and the “Solubility in PGME A (amount of dissolution)” value is reported as “A (5.0% by mass ≤ Amount of dissolution)”. For the same compound, the “Solubility in safe solvents (in words)” value was “high solubility”.
For `Oc1ccc2c3c(ccc2c1)Oc1ccc2cc(O)ccc2c1C3c1ccc(-c2ccccc2)cc1` [Production Example 1, reference compound], the “Solubility in CHN” value was “A (5.0% by mass ≤ Amount of dissolution)”, the “Solubility in PGME (amount of dissolution)” value was “A (5.0% by mass ≤ Amount of dissolution)” and the “Solubility in PGME A (amount of dissolution)” value was “A (5.0% by mass ≤ Amount of dissolution)”.
With `Oc1ccc2c3c(ccc2c1)Oc1ccc2cc(O)ccc2c1C3c1ccc(I)cc1` [Synthesis Example 2] the “Solubility in CHN” value was “A (5.0% by mass ≤ Amount of dissolution)”, the “Solubility in PGME (amount of dissolution)” value was “A (5.0% by mass ≤ Amount of dissolution)” and the “Solubility in PGME A (amount of dissolution)” value was “A (5.0% by mass ≤ Amount of dissolution)”. For the same compound, the “Solubility in safe solvents (in words)” value was “high solubility”.
For `COc1cc(C2c3c(ccc4cc(O)ccc34)Oc3ccc4cc(O)ccc4c32)cc(I)c1O` [Synthesis Example 3], the “Solubility in CHN” value was “A (5.0% by mass ≤ Amount of dissolution)”, the “Solubility in PGME (amount of dissolution)” value was “A (5.0% by mass ≤ Amount of dissolution)” and the “Solubility in PGME A (amount of dissolution)” value was “A (5.0% by mass ≤ Amount of dissolution)”. The “Solubility in safe solvents (in words)” value was “high solubility”.
